Assays:
Format in all cases: physicochemical
[1] = Stability study: material left open to air at room temperature and exposed to light for one month (HPLC, Karl Fischer); conditions: room temperature, exposed to light
Procedure: A stability study of birinapant form H was performed by leaving the material open to air at room temperature and exposed to light for one month. […] A stability study of birinapant form H was performed by leaving the material open to air at room temperature and exposed to light for one month.

[2] = Stability studies under elevated temperature and relative humidity; crystalline form by XRPD, birefringence by polarized light microscopy
[3] = as above; remark: listed apart in the source
Procedure: XRPD patterns were collected with a PANalytical Empyrean diffractometer using an incident beam of Cu radiation produced using a long, fine-focus source. An elliptically graded multilayer mirror was used to focus Cu Kα X-rays through the specimen and onto the detector. Prior to analysis, a silicon specimen (NIST SRM 640e) was analyzed to verify the observed position of the Si 111 peak is consistent with the NIST-certified position. A specimen of the sample was sandwiched between 3-μm-thick films and analyzed in transmission geometry. A beam-stop, short antiscatter extension, and antiscatter knife edge were used to minimize the background generated by air. Soller slits for the incident and diffracted beams were used to minimize broadening and asymmetry from axial divergence. Diffraction patterns were collected using a scanning position-sensitive detector (X′Celerator) located 240 mm from the specimen and Data Collector software v. 5.5. Additional stability studies under elevated temperature and relative humidity (RH) conditions were also performed. Samples of birinapant form H were subjected to various temperature and humidity conditions for up to 105 days, and samples were taken at 17, 33, and 105 days. For each sample the identity of the crystalline form of the sample was assessed using XRPD and the birefringence of the sample was assessed using polarized light microscopy. Additionally, XRPD patterns for several time points are provided for the 60° C. study, the 30° C./62% RH study, and the 40° C./75% RH study in FIGS. 6, 7, and 8, respectively. The time points shown are at the start of the study (top pattern), after 17 days (pattern second from top), after 33 days (pattern third from top), and after 105 days (bottom pattern). Additional stability studies under elevated temperature and relative humidity (RH) conditions were also performed. Samples of birinapant form H were subjected to various temperature and humidity conditions for up to 182 days, and samples were taken at […]. For each sample the identity of the crystalline form of the sample was assessed using XRPD and the birefringence of the sample was assessed using polarized light microscopy. The “RESULT” column indicates the form that was observed. Additionally, XRPD patterns for several time points are provided for the 60° C. study, the 30° C./62% RH study, and the 40° C./75% RH study in FIG. 9. The spectra shown in FIG. 9 correspond to the 60° C. study after 33 days (top trace), the 60° C. study after 182 days (trace second from top), the 30° C./62% RH study after 33 days (trace third from top), the 30° C./62% RH study after 182 days (trace fourth from top), the 40° C./75% RH study after 33 days (trace fifth from top), and the 40° C./75% RH study after 182 days (trace sixth from top). A representative XRPD trace for birinapant form H prior to stressing is also shown for comparison (bottom trace).

[4] = Dynamic vapor sorption (DVS) study; design: Hysteresis: unit not given here; conditions: 25° C.
Procedure: Automated vapor sorption (VS) data were collected on a Surface Measurement System DVS Intrinsic instrument. Samples were not dried prior to analysis. Sorption and desorption data were collected over a range from 5% to 95% RH at 10% RH increments under a nitrogen purge. The equilibrium criterion used for analysis was less than 0.0100% weight change in 5 minutes with a maximum equilibration time of 3 hours. Data were not corrected for the initial moisture content of the samples. This study was performed at a temperature of 25° C., and the relative humidity was cycled between about 5% and about 95%.

TGA study = conditions: between about 25° C. and 300° C.
Procedure: TGA analysis was performed using a Mettler-Toledo TGA/DSC3 analyzer. Temperature and enthalpy adjustments were performed using indium, tin, and zinc, and then verified with indium. The balance was verified with calcium oxalate. The sample was placed in an open aluminum pan. The pan was hermetically sealed, the lid pierced, and then inserted into the TG furnace. A weighed aluminum pan configured as the sample pan was placed on the reference platform. The furnace was heated under nitrogen. Each sample was heated from ambient temperature to 350° C. at 10° C./min. The thermograms were plotted by reference temperature (x-axis) and results were reported according to sample temperatures. Briefly, a sample of biripant Form H was heated from about 25° C. to about 400° C. […] Between about 340° C. and 400° C., weight loss was observed, corresponding to the thermal decomposition of birinapant.

[5] = target RH 95.0%, sample RH 95.7%

appearance of the surface of the solid [1]: discolored slightly
purity of birinapant by HPLC after storage [1]: 99.9%
Observation ([2]; 245° C., 1 hr): light tan solids
Observation ([2]; RT, 53% RH, 18 d, B = birefringence): fines, B sample faint pale yellow
Observation ([2]; Table 5: 245° C., 1 hr): light tan solids
Observation ([3]; 30° C., 62% RH, 17 d, B = birefringence): fines, B
Observation ([3]; 30° C., 62% RH, 105 d, B = birefringence): white fines, B
Observation ([3]; 40° C., 75% RH, 17 d, B = birefringence): fines, B
Observation ([3]; 40° C., 75% RH, 33 d): white solids
Observation ([3]; 40° C., 75% RH, 105 d, B = birefringence): white fines, B
Observation ([3]; 60° C., 17 d, B = birefringence): fines, B
Observation ([3]; 60° C., 33 d): white to off-white in color
Observation ([3]; 60° C., 105 d): off-white
Observation ([3]; 80° C., 17 d, B = birefringence): fines, B sample faint pale yellow
Observation ([3]; 80° C., 33 d): pale yellow in color
Observation ([3]; RT, 98% RH, 18 d, B = birefringence): fines, B sample faint pale yellow
Observation ([3]; Table 5: 30° C., 62% RH, 17 d, B = birefringence): fines, B
Observation ([3]; Table 5: 30° C., 62% RH, 105 d, B = birefringence): white fines, B
Observation ([3]; Table 5: 30° C., 62% RH, 182 d, power outage 1 hour on day 125): white solids^d
Observation ([3]; Table 5: 40° C., 75% RH, 17 d, B = birefringence): fines, B
Observation ([3]; Table 5: 40° C., 75% RH, 33 d): white solids
Observation ([3]; Table 5: 40° C., 75% RH, 105 d, B = birefringence): white fines, B
Observation ([3]; Table 5: 40° C., 75% RH, 182 d, power outage 1 hour on day 125): white solids^e
Observation ([3]; Table 5: 60° C., 17 d, B = birefringence): fines, B
Observation ([3]; Table 5: 60° C., 33 d): white to off-white in color
Observation ([3]; Table 5: 60° C., 105 d): off-white
Observation ([3]; Table 5: 60° C., 182 d, temperature excursions: 105° C. 3 hours on day 113, power outage 1 hour on day 125): off-white to pale yellow^c
Observation ([3]; Table 5: 80° C., 17 d, B = birefringence): fines, B sample faint pale yellow
Observation ([3]; Table 5: 80° C., 33 d): pale yellow in color
Observation ([3]; Table 5: RT, 53% RH, 18 d, B = birefringence): fines, B sample faint pale yellow
Observation ([3]; Table 5: RT, 98% RH, 18 d, B = birefringence): fines, B sample faint pale yellow
Cycle 1 Sorp Mass Change ([4]; target RH 5.0%, sample RH 5.1%): 0.000%
Cycle 1 Desorp Mass Change ([4]; target RH 5.0%, sample RH 5.5%): 0.020%
Hysteresis ([4]; target RH 15.0%): 0.192
Cycle 1 Sorp Mass Change ([4]; target RH 15.0%, sample RH 15.6%): 0.365%
Cycle 1 Desorp Mass Change ([4]; target RH 15.0%, sample RH 16.1%): 0.557%
Hysteresis ([4]; target RH 25.0%): 0.197
Cycle 1 Sorp Mass Change ([4]; target RH 25.0%, sample RH 25.1%): 0.732%
Cycle 1 Desorp Mass Change ([4]; target RH 25.0%, sample RH 25.6%): 0.929%
Hysteresis ([4]; target RH 35.0%): 0.237
Cycle 1 Sorp Mass Change ([4]; target RH 35.0%, sample RH 34.7%): 1.001%
Cycle 1 Desorp Mass Change ([4]; target RH 35.0%, sample RH 35.3%): 1.238%
Hysteresis ([4]; target RH 45.0%): 0.308
Cycle 1 Sorp Mass Change ([4]; target RH 45.0%, sample RH 45.0%): 1.224%
Cycle 1 Desorp Mass Change ([4]; target RH 45.0%, sample RH 45.6%): 1.532%
Hysteresis ([4]; target RH 55.0%): 0.379
Cycle 1 Sorp Mass Change ([4]; target RH 55.0%, sample RH 54.7%): 1.436%
Cycle 1 Desorp Mass Change ([4]; target RH 55.0%, sample RH 55.4%): 1.815%
Hysteresis ([4]; target RH 65.0%): 0.425
Cycle 1 Sorp Mass Change ([4]; target RH 65.0%, sample RH 64.7%): 1.652%
Cycle 1 Desorp Mass Change ([4]; target RH 65.0%, sample RH 65.5%): 2.078%
Hysteresis ([4]; target RH 75.0%): 0.428
Cycle 1 Sorp Mass Change ([4]; target RH 75.0%, sample RH 74.7%): 1.908%
Cycle 1 Desorp Mass Change ([4]; target RH 75.0%, sample RH 75.3%): 2.336%
Hysteresis ([4]; target RH 85.0%): 0.347
Cycle 1 Sorp Mass Change ([4]; target RH 85.0%, sample RH 84.9%): 2.263%
Cycle 1 Desorp Mass Change ([4]; target RH 85.0%, sample RH 86.0%): 2.610%
Cycle 1 Desorp Mass Change [4, 5]: 2.904%
Cycle 1 Sorp Mass Change [4, 5]: 2.904%
weight loss on heating (TGA) (TGA study): No weight loss
SMILES: CC[C@H](NC(=O)[C@H](C)NC)C(=O)N1C[C@@H](O)C[C@H]1Cc1c(-c2[nH]c3cc(F)ccc3c2C[C@@H]2C[C@H](O)CN2C(=O)[C@H](CC)NC(=O)[C@H](C)NC)[nH]c2cc(F)ccc12 [birinapant Form H, (2S,2'S)—N,N′-((2S,2'S)-((3S,3'S,5R,5′R)-((6,6′-difluoro-1H,1′H-[2,2′-biindole]-3,3′-diyl)bis(methylene))bis(3-hydroxypyrrolidine-5,1-diyl))bis(1-oxobutane-1,2-diyl))bis(2-(methylamino)propanamide)]

— patent US20250304635A1, “BIRINAPANT POLYMORPH H” (Medivir AB, priority 2022, published 2025)
